≈ marks a conversion by molar mass, not a printed value.

Common to all, as to type: functional
The test system of experiment [1] is Streptococcus pyogenes. The experiment is described as follows: Antibacterial activity against erythromycin-susceptible Streptococcus pyogenes 19615 by broth-microdilution method.
The test system of experiment [2] is Haemophilus influenzae. The experiment is described as follows: Antibacterial activity against ampicillin-resistant Haemophilus influenzae 33929 by broth-microdilution method.
Experiment [3] has as its system Streptococcus pneumoniae. The experiment is described as follows: Antibacterial activity against erythromycin-resistant Streptococcus pneumoniae 700906 expressing […] gene by broth-microdilution method. For orientation: Broth dilution looks for growth in wells or tubes with falling amounts of substance.
Experiment [4] deals with Streptococcus pyogenes. The experiment is described as follows: Antibacterial activity against erythromycin-resistant Streptococcus pyogenes 2912 expressing erm gene by broth-microdilution method.
Experiment [5] concerns Staphylococcus aureus. The experiment is described as follows: Antibacterial activity against methicillin-resistant Staphylococcus aureus 33591 by broth-microdilution method.
Experiment [6] concerns Haemophilus influenzae. The experiment is described as follows: Antibacterial activity against ampicillin-susceptible Haemophilus influenzae by broth-microdilution method.
The test system of experiment [7] is Streptococcus pneumoniae. The experiment in a line: Antibacterial activity against erythromycin-resistant Streptococcus pneumoniae 7701 expressing mef gene by broth-microdilution method.
The test system of experiment [8] is Staphylococcus aureus. The experiment is described as follows: Antibacterial activity against MLSB-resistant Staphylococcus aureus 27660 by broth-microdilution method.
Experiment [9] has as its system Streptococcus pyogenes. The experiment is described as follows: Antibacterial activity against erythromycin-resistant Streptococcus pyogenes 1323 expressing mef gene by broth-microdilution method.
Experiment [10] relates to Streptococcus pneumoniae. The experiment in a line: Antibacterial activity against erythromycin-susceptible Streptococcus pneumoniae 49619 by broth-microdilution method.
The subject of experiment [11] is Staphylococcus aureus. The experiment in a line: Antibacterial activity against erythromycin-susceptible Staphylococcus aureus 29213 by broth-microdilution method. As to conditions: ATCC29213.
A further experiment concerns Moraxella catarrhalis. The experiment in a line: Antibacterial activity against Moraxella catarrhalis by broth-microdilution method.
Experiment [12] deals with Staphylococcus aureus. The experiment in a line: Antibacterial activity against macrolide-susceptible Staphylococcus aureus Smith by broth-microdilution method.
Experiment [13] deals with Staphylococcus aureus. The experiment in a line: Antibacterial activity against macrolide-resistant Staphylococcus aureus 7701 infected in mouse.
In experiment [14] the test system is Staphylococcus aureus. The experiment is described as follows: Antibacterial activity against macrolide-susceptible Staphylococcus aureus Smith infected in mouse.

`C=C1CO[C@H]2[C@H](C)[C@@H](O[C@@H]3O[C@H](C)C[C@H](N(C)C)[C@H]3O)[C@](C)(C[C@@H](C)C(=O)[C@H](C)[C@@H](O)[C@](C)(O)[C@@H](CC)OC(=O)[C@@H]2C)OC1`: the MIC against Streptococcus pyogenes [1] was 0.25 µg/mL (≈ 0.398 µM); in the experiment on Haemophilus influenzae [2], 64 µg/mL (≈ 102 µM); against Streptococcus pneumoniae [3] it was > 64 µg/mL; against Streptococcus pyogenes [4], > 64 µg/mL; with Staphylococcus aureus [5], > 64 µg/mL; in the experiment with Haemophilus influenzae [6], 64 µg/mL (≈ 102 µM). Also, the MIC against Streptococcus pneumoniae [7] came to 0.25 µg/mL (≈ 0.398 µM); in the experiment on Staphylococcus aureus [8], 1 µg/mL (≈ 1.59 µM); against Streptococcus pyogenes [9], 0.5 µg/mL (≈ 0.796 µM); with Streptococcus pneumoniae [10], 0.125 µg/mL (≈ 0.199 µM); in the experiment on Staphylococcus aureus [11] it was 1 µg/mL (≈ 1.59 µM); in the experiment with Moraxella catarrhalis, 0.5 µg/mL (≈ 0.796 µM).

On to `CC[C@H]1OC(=O)[C@H](C)[C@@H](O[C@H]2C[C@@](C)(OC)[C@@H](O)[C@H](C)O2)[C@H](C)[C@@H](O[C@@H]2O[C@H](C)C[C@H](N(C)C)[C@H]2O)[C@](C)(O)C[C@@H](C)C(=O)[C@H](C)[C@@H](O)[C@]1(C)O` [ERYTHROMYCIN], for which the MIC was 0.015 µg/mL (≈ 0.0204 µM) against Streptococcus pyogenes [1]; 4 µg/mL (≈ 5.45 µM) against Haemophilus influenzae [2]; > 64 µg/mL in the experiment on Streptococcus pneumoniae [3]; > 64 µg/mL against Streptococcus pyogenes [4]; > 64 µg/mL with Staphylococcus aureus [5]; 4 µg/mL (≈ 5.45 µM) in the experiment on Haemophilus influenzae [6]. Further, the MIC against Streptococcus pneumoniae [7] was 4 µg/mL (≈ 5.45 µM); in the experiment on Staphylococcus aureus [8], > 64 µg/mL; against Streptococcus pyogenes [9], 16 µg/mL (≈ 21.8 µM); in the experiment on Streptococcus pneumoniae [10], ≤ 0.06 µg/mL; against Staphylococcus aureus [11], 0.5 µg/mL (≈ 0.681 µM); against Moraxella catarrhalis, 0.13 µg/mL (≈ 0.177 µM).

Regarding `C=C1CO[C@H]2[C@H](C)[C@@H](O[C@@H]3O[C@H](C)C[C@H](N(C)C)[C@H]3O)[C@](C)(C[C@@H](C)/C(=N\O)[C@H](C)[C@@H](O)[C@](C)(O)[C@@H](CC)OC(=O)[C@@H]2C)OC1`, the MIC with Streptococcus pyogenes [1] is 0.125 µg/mL (≈ 0.194 µM); against Haemophilus influenzae [2], 32 µg/mL (≈ 49.8 µM); against Streptococcus pneumoniae [3] it was > 64 µg/mL; in the experiment with Streptococcus pyogenes [4], > 64 µg/mL; against Staphylococcus aureus [5], > 64 µg/mL; in the experiment on Haemophilus influenzae [6], 32 µg/mL (≈ 49.8 µM). The MIC against Streptococcus pneumoniae [7] is 0.25 µg/mL (≈ 0.389 µM); in the experiment on Staphylococcus aureus [8] it was 1 µg/mL (≈ 1.56 µM); against Streptococcus pyogenes [9], 0.25 µg/mL (≈ 0.389 µM); against Streptococcus pneumoniae [10] it was ≤ 0.06 µg/mL; against Staphylococcus aureus [11], 1 µg/mL (≈ 1.56 µM); in the experiment on Moraxella catarrhalis, 0.25 µg/mL (≈ 0.389 µM).

As to `C=C1CO[C@H]2[C@H](C)[C@@H](O[C@@H]3O[C@H](C)C[C@H](N(C)C)[C@H]3O)[C@](C)(C[C@@H](C)[C@H](N)[C@H](C)[C@@H](O)[C@](C)(O)[C@@H](CC)OC(=O)[C@@H]2C)OC1`, the MIC with Streptococcus pyogenes [1] is ≤ 0.06 µg/mL; with Haemophilus influenzae [2], 32 µg/mL (≈ 50.9 µM); against Streptococcus pneumoniae [3], > 64 µg/mL; with Streptococcus pyogenes [4], 64 µg/mL (≈ 102 µM); against Staphylococcus aureus [5] it was > 64 µg/mL; in the experiment on Haemophilus influenzae [6], 32 µg/mL (≈ 50.9 µM). Moreover, the MIC in the experiment on Streptococcus pneumoniae [7] was 0.125 µg/mL (≈ 0.199 µM); against Staphylococcus aureus [8] it was 4 µg/mL (≈ 6.36 µM); with Streptococcus pyogenes [9] it was 0.25 µg/mL (≈ 0.398 µM); in the experiment on Streptococcus pneumoniae [10], ≤ 0.06 µg/mL; with Staphylococcus aureus [11], 4 µg/mL (≈ 6.36 µM); against Moraxella catarrhalis it was 0.5 µg/mL (≈ 0.795 µM).

As for `C=C1CO[C@H]2[C@H](C)[C@@H](O[C@@H]3O[C@H](C)C[C@H](N(C)C)[C@H]3O)[C@](C)(C[C@@H](C)C(=N)[C@H](C)[C@@H](O)[C@](C)(O)[C@@H](CC)OC(=O)[C@@H]2C)OC1`, the MIC was 0.125 µg/mL (≈ 0.199 µM) against Streptococcus pyogenes [1]; 64 µg/mL (≈ 102 µM) against Haemophilus influenzae [2]; > 64 µg/mL in the experiment with Streptococcus pneumoniae [3]; 64 µg/mL (≈ 102 µM) in the experiment on Streptococcus pyogenes [4]; > 64 µg/mL in the experiment on Staphylococcus aureus [5]; 16 µg/mL (≈ 25.5 µM) against Haemophilus influenzae [6]. Besides, the MIC stood at 0.25 µg/mL (≈ 0.399 µM) against Streptococcus pneumoniae [7]; 2 µg/mL (≈ 3.19 µM) in the experiment on Staphylococcus aureus [8]; 0.5 µg/mL (≈ 0.798 µM) with Streptococcus pyogenes [9]; 0.125 µg/mL (≈ 0.199 µM) against Streptococcus pneumoniae [10]; 2 µg/mL (≈ 3.19 µM) in the experiment with Staphylococcus aureus [11]; 0.5 µg/mL (≈ 0.798 µM) in the experiment on Moraxella catarrhalis.

As for `CC[C@H]1OC(=O)[C@H](C)C(=O)[C@H](C)[C@@H](O[C@@H]2O[C@H](C)C[C@H](N(C)C)[C@H]2O)[C@](C)(OC)C[C@@H](C)C(=O)[C@H](C)[C@H]2N(CCCCn3cnc(-c4cccnc4)c3)C(=O)O[C@]12C` [TELITHROMYCIN], the MIC in the experiment on Staphylococcus aureus [12] was 0.125 µg/mL (≈ 0.154 µM). Further, the ED50 with Staphylococcus aureus [13] and in the experiment on Staphylococcus aureus [14] was 17.2 mg/kg in each case.

As to `C=C1CO[C@H]2[C@H](C)[C@@H](O[C@@H]3O[C@H](C)C[C@H](N(C)C)[C@H]3O)[C@](C)(C[C@@H](C)C(=O)[C@H](C)[C@@H]3NC(=O)O[C@]3(C)[C@@H](CC)OC(=O)[C@@H]2C)OC1`, the MIC with Streptococcus pyogenes [1] was ≤ 0.06 µg/mL; in the experiment with Haemophilus influenzae [2] it was 4 µg/mL (≈ 6.13 µM); in the experiment with Staphylococcus aureus [12], 0.125 µg/mL (≈ 0.191 µM); against Streptococcus pneumoniae [3], > 64 µg/mL; with Streptococcus pyogenes [4], > 64 µg/mL; in the experiment on Staphylococcus aureus [5], > 64 µg/mL. Further, the MIC was 2 µg/mL (≈ 3.06 µM) against Haemophilus influenzae [6]; 0.125 µg/mL (≈ 0.191 µM) in the experiment with Staphylococcus aureus [8]; 0.125 µg/mL (≈ 0.191 µM) with Streptococcus pyogenes [9]; ≤ 0.06 µg/mL in the experiment with Streptococcus pneumoniae [10]; 0.125 µg/mL (≈ 0.191 µM) against Staphylococcus aureus [11]; ≤ 0.06 µg/mL against Moraxella catarrhalis. Moreover, the ED50 (usually the dose at which the effect has come halfway, by size or by number of responders) in the experiment with Staphylococcus aureus [13] amounted to 7 mg/kg; in the experiment with Staphylococcus aureus [14], 10 mg/kg.

For the origin of these results see ChEMBL document CHEMBL1152201, “Synthesis of 3,6-bicyclolides: a novel class of macrolide antibiotics” (2008).
